Reference: ChEMBL document CHEMBL1156398, “Four new bioactive pyrrole-derived alkaloids from the marine sponge Axinella brevistyla” (J Nat Prod, 2001)
In brackets after ≈: the same amount, converted by molar mass. Activity calls are given as the source filed them. The rule behind the calls is not given here.

Experiments:
[1] = tested on: L1210; assay: Cytotoxicity against mouse L1210 cells; assay type: functional, cell-based
[2] = tested on: Saccharomyces cerevisiae; assay: Antifungal activity against Saccharomyces cerevisiae YAT2285 erg6 mutant at <1.0 ug/disk by paper disk method; assay type: functional, organism-based
[3] = tested on: Saccharomyces cerevisiae; assay: Antifungal activity against Saccharomyces cerevisiae YAT2285 erg6 mutant at 100 ug/disk by paper disk method; assay type: functional, organism-based
[4] = tested on: Saccharomyces cerevisiae; assay: Antifungal activity against Saccharomyces cerevisiae YAT2285 erg6 mutant at 30 ug/disk by paper disk method; assay type: functional, organism-based

Row | SMILES | IC50 [1] [µg/mL] | Activity [2] | Activity [3] | Activity [4]
1 | O=C1NC(=O)C(Br)=C1Br | 0.66 (≈ 2.59 µM) | Active | – | –
2 | C[N+]1=CN[C@H](C(=O)[O-])C[C@@]1(C)COC(=O)c1cc(Br)c[nH]1 | – | – | Active | –
3 | O=C1C=C(Br)C(=O)N1 | 1.1 (≈ 6.25 µM) | Active | – | –
4 | NC1=NC2c3c([nH]c(Br)c3Br)C(=O)N3C[C@H](Cl)[C@H](O)C23N1 (some centres not stated) | 2.5 (≈ 5.69 µM) | – | – | Active
